The results in this text go back to EP0703239A1, “Aminomethylphosphonic and aminomethylphosphinic acids derivatives and their use in the treatment of degenerative articular diseases” (priority 1994, dated 1996).

Like-named read-outs stand apart in the source and are kept apart here.

The subject of one data set is Rattenlebermikrosomen. The experiment in a line: Inhibition of microsomal lipid peroxidation (malondialdehyde/thiobarbituric acid). The settings on record: rat liver microsomes, FeSO₄ start, 10 min 37°C; read-out: IC50 Mikrosomale Lipidperoxidation. The data set is classed as biochemical, Ratte. As to the method: 4. Hemmung der Mikrosomalen Lipidperoxidation […]
Alle Schritte werden bei 0°C durchgeführt. Die Leber einer Ratte wird, um alles Hämoglobin zu entfernen, mit 0,9 % NaCl-Lösung gründlich gespült. Die grob zerkleinerte Leber wird dann in 10 mM Tris/HCl pH 7,4; 250 mM Saccharose (10 ml Puffer/g Leber) gepottert. Zunächst wird 5 Minuten bei 600xg zentrifugiert. Der Überstand wird dann 10 min bei 12000xg zentrifugiert und wird mit festem CaCl₂ (117,6 mg/100 ml) auf eine Konzentration von 8 mM eingestellt. Durch Zentrifugieren bei 25000 xg (15 min) wird ein Mikrosomenniederschlag gewonnen. Dieser Niederschlag wird im gleichen Volumen Puffer (10 mM Tris/HCl pH 7,4; 150 mM KCl) rehomogenisiert und erneut 15 min bei 25000 xg zentrifugiert.
Ein Testansatz besteht aus 20 µl Mikrosomen (100 mg/ml), vgl. oben, gelöst in Puffer (250 mM Tris/HCl pH 6,6, 750 mM KCl), 10 µl 50 mM MgCl₂, 10 µl 200 mM Isocitronensäure, 10 µl 4mM NADP (3,028 mg/ml Wasser), 10 µl 25 mM Niacinamid, 10 µl Isocitratdehydrogenase (1:100 verdünnt) und 20 µl Wasser oder Testsubstanz. Gestartet wird die Reaktion mit 10 µl 0,25 mM FeSO₄. Die Inkubation dauert 10 Minuten und erfolgt bei 37°C. Gestoppt wird mit 500 µl eiskalter 20 %iger Trichloressigsäure. Entstandenes Malondialdehyd wird durch Zugabe von 500 µl 0,67 %iger Thiobarbitursäure und 30 Minuten Inkubation bei 90°C in eine pinkfarbene Verbindung überführt, die bei 532 nm gemessen wird. Die Extinktion im Kontrollansatz ohne Prüfpräparat wird auf 0 % Hemmung gesetzt, während das völlige Verschwinden des Signals 100 % Hemmung bedeutet.
In general terms: Liver microsomes are a subcellular fraction often used to study metabolism.

Another data set relates to IL-1alpha. In words: LPS-stimulated interleukin release from human mononuclear cells, ELISA (IL-1alpha). The settings on record: 10 µmol/l, 20-22 h, read-out: % Hemmung der Interleukin-Freisetzung. The data set is classed as cell-based. Here is the method: (§1) 5. Freisetzung von Interleukinen (insbesondere IL-1β) aus humanen mononuklearen Zellen
(§2) Die erfindungsgemäßen Verbindungen haben eine starke Hemmwirkung auf die Freisetzung von Interleukinen aus Humanzellen. Dies ist von großer pharmakologischer Bedeutung weil Interleukine die unerwünschte Degradation der Knorpelmatrix auslösen können.
(§3) 10 ml Humanblut, stabilisiert mit 1 ml 3,8 %iger Natriumcitrat-Lösung, werden mit 10 ml PM16 (Serva, Heidelberg) verdünnt und mit 15 ml Lymphoprep (Dr. Molter GmbH, Heidelberg) unterschichtet. Die Proben werden 40 Minuten bei 400 xg (1600 rpm Minifuge 2, Heraeus, Osterode) zentrifugiert (Raumtemperatur). Die mononuklearen Zellen sind als weißer Ring an der Grenze Lymphoprep/Plasma sichtbar. Dieser Ring wird mit einer Spritze vorsichtig entnommen, mit dem gleichen Volumen PM16 verdünnt und 10 Minuten bei 400 xg zentrifugiert. Der Niederschlag wird mit ∼ 10 ml RPMI 1640 (+ 300 mg/l L-Glutamin, Gibco, Eggenstein) gewaschen. Nach Resuspendieren der Zellen in ∼ 1 ml RPMI 1640 (+ 300 mg/l L-Glutamin, + 25 mM HEPES, + 100 µg/ml Streptomycin, + 100 µg/ml Penicillin) wird die Zelldichte mit einem Coulter Counter JT (Coulter Diagnostics) bestimmt und auf 5 * 10⁶/ml eingestellt. Die Zellen bestehen typischerweise aus 90 % Lymphozyten und 10 % Monozyten.
(§4) 230 µl mononukleare Zellen werden mit 10 µl Testsubstanz (10 µM in DMSO/Wasser 1/10) und 10 µl Lipopolysaccharide (500 µg gelöst in 1 ml Dimethylsulfoxid (DMSO) und vor Testbeginn 1/10 mit Wasser verdünnt, von Salmonella abortus equi, Sigma, Deisenhofen) 20-22 Stunden bei 37°C; 5 % CO₂ inkubiert. Die Proben werden in einem Eisbad auf 0°C abgekühlt und in einer Sigma-Zentrifuge zentrifugiert (2 Minuten; 2000 rpm). Aliquote des Überstandes werden mit einem kommerziell erhältlichen ELISA (Biermann, Bad Nauheim) bestimmt.

In data set [1] the test system is Chondrozyten. The experiment in a line: IL-1-induced chondrocytic chondrolysis in chondrocyte agarose culture, 35S-sulfate incorporation. The settings on record: agarose cell culture with 5 u/ml human rec. IL-1 alpha; factor relative to IL-1 treated control.
Data set [2] deals with Chondrozyten. The experiment in a line: Stimulation of cartilage matrix (proteoglycan) synthesis in chondrocyte agarose culture, 35S-sulfate incorporation. The data set is classed as cell-based, Rinder. The conditions noted are these: Chondrocyte, read-out: Stimulationsfaktor der Proteoglykansynthese. The source says: 1. Wirksamkeit in der Synthese-Stimulierung von Knorpel-Matrix, Prüfung in der Chondrozyten-Kultur
Zellen: Den Fußgelenken frisch geschlachteter Rinder werden der hyaline Knorpel entnommen, mit Pronase (Boehringer Mannheim) und Collagenase (Sigma), die native Matrix enzymatisch abgebaut, und die Chondrozyten in 1 %iger "low melting Agarose" in 24er Multiwell-Schalen in einer Zelldichte von 4 x 10⁶ pro well ausplattiert.
Medium: Komplettes Medium enthält HAM's F12 (Biochrom KG, Berlin) und 10 % foetales Kälberserum (Boehringer Mannheim), die Testsubstanz wird in Medium gelöst, üblicherweise in einer Konzentration von 10⁻⁵ M zugegeben und bei jedem Mediumwechsel erneut zugefügt.
Versuchsdurchführung: Die Behandlung erfolgt vom dritten bis zehnten Tag der Primärkultur, am 9. […] Die dissoziative Extraktion der Proteoglykane aus der Agarose-Schicht wird mit 8M Guanidinium-Hydrochlorid und beigefügten Proteinase-Inhibitoren (Sigma) unter Schütteln bei 4° C über 24 h durchgeführt. Der Überstand wird nach Zentrifugation über eine PD 10 ®Sephadex G 25 Säule in freies und inkorporiertes Sulfat getrennt, dessen Aktivität nach Aliquotierung im β-Szintillationscounter gemessen wird.
Auswertung: Der Parameter für die Matrixproduktion der Chondrozyten ist die Menge synthetisierter Proteoglykane, gemessen als Sulfatinkorporation in cpm. Aus vier Wells pro Gruppe wird der Mittelwert errechnet. Dieser wird durch den Mittelwert der unbehandelten Kontrolle dividiert, und ergibt somit einen Stimulationsfaktor, der bei Stimulation der Matrixsynthese größer 1 ist, bei Hemmung derselben durch Substanzwirkung kleiner 1, und bei unveränderter Matrixsynthese gleich 1 ist.
Als Standard wird Diacerein eingesetzt, das unter dem Markennamen "Artodar" von der Firma Proter bzw. […] Tabelle II

Data set [3] has as its system Matrix Metalloproteasen (MMP). The experiment in a line: Inhibition of matrix metalloproteases from supernatant of PMA-induced synoviocytes, fluorogenic substrate. The data set is classed as biochemical, Kaninchen. The source says:
3. Inhibierung von Matrix Metalloproteasen (MMP)
Die erfindungsgemäßen Verbindungen zeigten deutliche inhibitorische Wirkungen auf proteolytische Enzyme, die sogenannten Matrix Metalloproteasen. Dies ist von großer Bedeutung, weil diese dem Fachmann an sich bekannten Enzyme am proteolytischen Abbau der intakten Knorpelmatrix entscheidend beteiligt sind.
Kaninchen Synoviocyten (HIG-82; ATCC, Rockville, Maryland, USA) werden in Nährmedium HAM'S F12 (Sigma, Deisenhofen, Deutschland, Katalog Nr. N-6760) mit 10 % fötalem Rinder Serum (Sigma, Deisenhofen, Deutschland, Katalog Nr. F-2442), zusammen mit Penicillin 100 U/ml sowie Streptomycin 100 µg/ml, kultiviert. Nach konfluentem Zellwachstum wird die MMP Expression in serumfreiem HAM'S F12 durch Zugabe von 0,3 µmol/l Phorbol-12-Myristat-13-Acetat induziert. Nach 20 h Inkubationszeit bei 37°C wird der Überstand abgenommen.
Der Überstand wird mit Trypsin (5 µg/ml) aktiviert. Nach 15 Minuten (min) bei 37°C wird die Aktivierung durch Zugabe von 1 mmol/l Phenylmethylsulfonylfluorid (PMSF) beendet und für weitere 10 min nachinkubiert. Das Gesamtvolumen des Ansatzes beträgt 210 µl.
Messung der MMP Aktivität (Lit.: C.G. Knight et al.; FEBS Lett. 296, 263 (1992)):
20 µl des obengenannten Überstandes werden 1:10 verdünnt, und mit 240 µl Puffer (0,1 Tris/HCl pH 7,5; 0,1 M NaCl; 0,01 M CaCl₂; 0,05 % Brij) gemischt. Die Prüfsubstanz wird in der angegebenen Konzentration (s. Tabelle) zugegeben. Nach einer Inkubationszeit von 15 min wird die Reaktion durch Zugabe von 20 µmol/l Fluoreszenz-Substanz ((7-Methoxycoumarin-4-yl)acetyl-pro-Leu-Gly-Leu-[3-(2',4'-dinitrophenyl)-L-2,3-diaminopropionyl]-Ala-Arg-NH₂; Bachem, Heidelberg, Deutschland, Kat. Nr.: M-1895) gestartet. Die Reaktion wird nach 30 min durch Zugabe von 10 mmol/l EDTA beendet. Das Gesamtvolumen des Ansatzes beträgt 320 µl. Als Meßparameter dienen die Fluoreszenzintensitäten bei λex: 328 nm und […]. Um die mögliche Eigenfluoreszens der Prüfsubstanzen zu berücksichtigen, werden die Fluoreszenzintensitäten von Parallel-Messungen ohne Substrat von den Messwerten mit Substrat abgezogen. Alle Operationen erfolgen bei 20°C. Im Kontrollexperiment ohne Hemmstoff wird die Fluoreszenz entsprechen 0 % Hemmung gesetzt, während völlige Auslöschung der Fluoreszenz 100 % Hemmung bedeutet.

Another data set relates to TNF-alpha. The experiment in a line: LPS-stimulated interleukin release from human mononuclear cells, ELISA (TNF-alpha). The data set is classed as cell-based. The conditions noted are these: 10 µmol/l, 20-22 h, read-out: % Hemmung der Interleukin-Freisetzung. As to the method: as §1, §2, §3, §4
A general note: An ELISA detects its analyte on a solid surface through an enzyme-linked reagent.

The test system of the next data set is IL-1beta. In words: LPS-stimulated interleukin release from human mononuclear cells, ELISA (IL-1beta). The data set is classed as cell-based. The conditions noted are these: 10 µmol/l, 20-22 h, read-out: % Hemmung der Interleukin-Freisetzung. Here is the method:
as §1, §2, §3, §4

For `COP(=O)(OC)C(NC1CCCCC1)c1cc(C(C)(C)C)c(O)c(C(C)(C)C)c1` (stereo not drawn) [Beispiel 7], the IC50 in the data set with Rattenlebermikrosomen was determined as 2.4 µM. Moreover, the inhibition at 10 µM with IL-1alpha was determined as 21%.
Take `CCCCOP(=O)(OCCCC)C(Nc1ccc(Cl)cc1)c1cc(C(C)(C)C)c(O)c(C(C)(C)C)c1` (stereo not drawn) [Beispiel 45]: the half-inhibitory concentration (IC50) in the data set with Rattenlebermikrosomen was 6.15 µM. Also, in the data set with IL-1alpha, the inhibition at 10 µM was 22%. Also, in the data set on Chondrozyten [1], the “Stimulationsfaktor der Proteoglykansynthese” value is 1,2.
Consider `CCOP(=O)(OCC)C(c1cc(C(C)(C)C)c(O)c(C(C)(C)C)c1)N1CCCCC1` (stereo not drawn) [Beispiel 22], for which, in the data set on Chondrozyten [2], the fold induction at 10 µM is 1.2. Also, the “Hemmung der MMP” value in data set [3] (30 µM) was 12%; in data set [3] (100 µM), 34%. Also, the IC50 with Rattenlebermikrosomen was 2.45 µM. Also, the figures for the inhibition at 10 µM with IL-1alpha and in the data set with TNF-alpha were 80% and 86%, respectively.
Take `COP(=O)(OC)C(Nc1ccc2c(c1)OCO2)c1cc(C(C)(C)C)c(O)c(C(C)(C)C)c1` (stereo not drawn) [Beispiel 60]: the concentration for half-maximal inhibition (IC50) with Rattenlebermikrosomen came out at 0.71 µM. For the same compound, the inhibition at 10 µM in the data set on TNF-alpha came out at 24%. For the same compound, the “Stimulationsfaktor der Proteoglykansynthese” value in the data set on Chondrozyten [1] was 1,4.
Consider `CCOP(=O)(OCC)C(c1cc(C(C)(C)C)c(O)c(C(C)(C)C)c1)N1CCN(c2ccccc2)CC1` (stereo not drawn) [Beispiel 25], for which the IC50 in the data set with Rattenlebermikrosomen came out at 2.45 µM. Also, the inhibition at 10 µM worked out at 60% in the data set with IL-1alpha and 36% in the data set on TNF-alpha.
Turning to `CCCOP(=O)(OCCC)C(Nc1ccc2c(c1)OCO2)c1cc(C(C)(C)C)c(O)c(C(C)(C)C)c1` (stereo not drawn) [Beispiel 62], the fold induction at 10 µM in the data set with Chondrozyten [2] (agarose cell culture, test substance usually 10⁻⁵ M, mean sulfate incorporation divided by untreated control (>1 = stimulation)) amounted to 1.2. In addition, the “Hemmung der MMP” value is on record as 23% in data set [3] (10 µM), 68% in data set [3] (30 µM) and 83% in data set [3] (100 µM). Moreover, in the data set on Rattenlebermikrosomen, the IC50 amounted to 0.24 µM. Also, in the data set with IL-1beta, the inhibition at 10 µM is 46%. In addition, the “Stimulationsfaktor der Proteoglykansynthese” value in the data set on Chondrozyten [1] is on record as 1,2.
On to `CCOP(=O)(OCC)C(c1cc(C(C)(C)C)c(O)c(C(C)(C)C)c1)N1CCOCC1` (stereo not drawn) [Beispiel 23], for which the 50% inhibitory concentration (IC50) in the data set on Rattenlebermikrosomen stood at 2.45 µM. For the same compound, the inhibition at 10 µM worked out at 75% in the data set with IL-1alpha and 70% with TNF-alpha.
Regarding `CCOP(=O)(OCC)C(Nc1ncccn1)c1cc(C(C)(C)C)c(O)c(C(C)(C)C)c1` (stereo not drawn) [Beispiel 80], the IC50 in the data set on Rattenlebermikrosomen worked out at 2.9 µM. For the same compound, the inhibition at 10 µM in the data set with TNF-alpha is 21%. Also, the “Stimulationsfaktor der Proteoglykansynthese” value in the data set with Chondrozyten [1] is recorded as 2,4.

What is called IC50 is the concentration at which inhibition is half-maximal.
